{
  "source": "patent EP3050567B1",
  "about": "“COMPOUND FOR ACTIVATING AMPK AND USES THEREOF” (Energenesis Biomedical Co., Ltd., priority 2013, dated 2015)",
  "key": {"[1]": {"test_system": "AMPK", "assay": "AMPK activation assay (phospho-AMPK Thr172 western blot) in U937 cells", "assay_type": "cell-based, human", "settings": "30 min", "method": "(§1) Effects of adenine on AMPK activation were evaluated based on the phosphorylation of AMPK protein upon adenine treatment. Mouse muscle cell C2C12, mouse fibroblast 3T3, human liver carcinoma cell Hep G2, human breast adenocarcinoma cell line MCF7 and human colon adenocarcinoma grade II cell line HT29, human umbilical vein endothelial cell HUVEC, Human acute monocytic leukemiacell THP1, human macrophage cell U937, murine microglia cell BV-2, and mouse neuroblastoma cell Neuro2A and dermal papilla cell were cultured in high-glucose Dulbecco's modified Eagle's medium (DMEM) containing 10% fetal bovine serum (FBS), 4 mM L-glutamine, 2 mM sodium pyruvate and 1% penicillin/streptomycin (Invitrogen GibcoBRL, Carlsbad, Calif., USA) at 37°C, under 5% CO2. Cells were plated at 3 × 10^5 per well in 6-well plates. Twenty-four hours after plating, adenine was added to the culture media as indicated. After 30 min cells were lysed and subject to western blot analysis. Equal amount of protein from each sample was separated by SDS-PAGE and then electroblotted on to PVDF membranes. Membranes were blocked with 3% BSA in PBS for 60 min and incubated with an anti-phospho-AMPK (Thr172) antibody (1:2,000, Cell signaling) or an anti-AMPK antibody (1:2,000, Cell signaling) at 4°C for 16 h followed by the corresponding secondary antibody for 1 h at room temperature (RT). Immunoreactive bands were detected by enhanced chemiluminescence and recorded using Kodak film. The detected signals were scanned and then quantified using TotalLab Quant software (TotalLab)."}, "[2]": {"test_system": "COX-2", "assay": "LPS-induced inflammatory response in THP1 macrophages, intracellular COX-2 (western blot)", "assay_type": "cell-based, human", "settings": "50 ng LPS 6 hr", "method": "Effects of adenine on inflammatory response were evaluated in human THP1 macrophage by examining protein level of intracellular COX-2 and secreted TNFα, IL-1β and IL-6. Differentiation of THP1 monocytes into macrophages was induced by 50 nM PMA for 24 hr. THP1 macrophages were further stimulated by 50 ng LPS for 6 hr in the presence of 10-600 µM of adenine or vehicle followed by cell lysis and western blot analysis. Equal amounts of protein were separated by SDS-PAGE and then electroblotted on to PVDF membranes. Membranes were blocked with 3% BSA in PBS for 60 min and incubated with an anti-COX-2 antibody (1:1,000, Cell signaling), an anti-actin antibody (1:5,000, Cell signaling) at 4° C for 16 h followed by the corresponding secondary antibody for 1 h at room temperature (RT). Immunoreactive bands were detected by enhanced chemiluminescence and recorded using Kodak film. The detected signals were scanned and then quantified using TotalLab Quant software (TotalLab). The secreted TNFα, IL-1β and IL-6 were analyzed by enzyme-linked immunosorbent assays."}, "[3]": {"test_system": "AMPK", "assay": "AMPK activation assay (phospho-AMPK Thr172 western blot) in Neuro2A cells", "assay_type": "cell-based, mouse", "settings": "30 min", "method": "as §1"}, "[4]": {"test_system": "Amyloid β peptide", "assay": "Amyloid β peptide assay in Neuro2A cells transfected with human APP695 (western blot)", "assay_type": "cell-based, mouse", "settings": "24 h", "method": "(§2) Effects of adenine on Amyloid β peptide were analyzed in mouse neuroblastoma cell Neuro2A. Neuro2A cells were cultured in high-glucose Dulbecco's modified Eagle's medium (DMEM) containing 10% fetal bovine serum (FBS), 4 mM L-glutamine, 2 mM sodium pyruvate and 1% penicillin/streptomycin (Invitrogen GibcoBRL, Carlsbad, Calif., USA) at 37°C under 5% CO2. Cells were plated at 3 × 10^5 per well (6-well plate). 24 h after plating, cells were transfected with human APP695 and treated with indicated concentration of adenine for 24 h followed by cell lysis and western blot analysis. Equal amounts of protein were separated by SDS-PAGE and then electroblotted on to PVDF membranes. Membranes were blocked with 3% BSA in PBS for 60 min and incubated with an anti-Aβ antibody (1:1,000, abcam), an anti-LC3 antibody (1:1,000, Cell signaling), and an anti-actin antibody (1:5,000, Cell signaling) at 4°C for 16 h followed by the corresponding secondary antibody for 1 h at room temperature (RT). Immunoreactive bands were detected by enhanced chemiluminescence and recorded using Kodakfilm. The detected signals were scanned and then quantified by using TotalLab Quant software (TotalLab)."}, "[5]": {"test_system": "LC3", "assay": "Autophagy assay (LC3-II/LC3-I western blot) in Neuro2A cells", "assay_type": "cell-based, mouse", "settings": "24 h", "method": "as §2"}, "[6]": {"test_system": "3T3 cells", "assay": "Fibroblast proliferation assay (trypan blue cell counting)", "assay_type": "cell-based, mouse", "settings": "72 h, mean±SEM of three experiments", "method": "(§3) […] fibro blast cell line 3T3 were cultured in high-glucose Dulbecco's modified Eagle's medium (DMEM) containing 10% fetal bovine serum (FBS), 4 mM L-glutamine, 2 mM sodium pyruvate and 1% penicillin/streptomycin (Invitrogen GibcoBRL, Carlsbad, Calif., USA) at 37°C under 5% CO2. For cell proliferation assay, 3T3 cells were plated at 1 × 10^5 per well (6-well plate). Twenty-four hours after plating, cells were treated with indicated concentration of adenine for 72 h and the number of viable cells was counted. Cells were detached using trypsin-EDTA solution and stained with trypan blue. The living cells were counted using hemocytometer."}, "[7]": {"test_system": "AMPK", "assay": "AMPK activation assay (phospho-AMPK Thr172 western blot) in dermal papilla cells", "assay_type": "cell-based", "settings": "30 min", "method": "as §1"}, "[8]": {"test_system": "HT29", "assay": "Cancer cell growth inhibition assay, HT29", "assay_type": "cell-based", "settings": "Homo sapiens, HT-29; HT29 cell proliferation, 72 h, cell counting", "method": "as §3, with “liver hepatocellular carcinoma” for “fibro blast”, “Hep G2, human breast adenocarcinoma cell line MCF7 and human colon adenocarcinoma grade II cell line HT29 were used to evaluate the effects of adenine on cell proliferation. Those cell lines were obtained from ATCC and” for “3T3”, “Cells” for “For cell proliferation assay, 3T3 cells”, “then followed by cell counting.” for “the number of viable cells was counted.”"}},
  "data": [
    {"molecule": "Nc1ncnc2nc[nH]c12", "note": "[Adenine, adenine]", "values": [
      {"measurement": "AMPK activation (fold to control)", "setting": "[1]; adenine 1 microM", "value": "1.1 fold to control"},
      {"measurement": "AMPK activation (fold to control)", "setting": "[1]; adenine 10 microM", "value": "1.3 fold to control"},
      {"measurement": "AMPK activation (fold to control)", "setting": "[1]; adenine 100 microM", "value": "2.9 fold to control"},
      {"measurement": "AMPK activation (fold to control)", "setting": "[1]; adenine 200 microM", "value": "3.7 fold to control"},
      {"measurement": "AMPK activation (fold to control)", "setting": "[1]; adenine 600 microM", "value": "4.0 fold to control"},
      {"measurement": "COX-2 (% to control)", "setting": "[2]; adenine 10 microM", "value": "81±4.4 % to control"},
      {"measurement": "COX-2 (% to control)", "setting": "[2]; adenine 100 microM", "value": "59±3.5 % to control"},
      {"measurement": "COX-2 (% to control)", "setting": "[2]; adenine 600 microM", "value": "38±5.3 % to control"},
      {"measurement": "AMPK activation (fold to control)", "setting": "[3]; adenine 1 microM", "value": "1.2 fold to control"},
      {"measurement": "AMPK activation (fold to control)", "setting": "[3]; adenine 10 microM", "value": "2.1 fold to control"},
      {"measurement": "AMPK activation (fold to control)", "setting": "[3]; adenine 100 microM", "value": "3.4 fold to control"},
      {"measurement": "sAβ level (% of control)", "setting": "[4]; Neuro2A cells transfected with human APP695, adenine 10 microM", "value": "89 ± 7.5 % of control"},
      {"measurement": "sAβ level (% of control)", "setting": "[4]; Neuro2A cells transfected with human APP695, adenine 20 microM", "value": "63 ± 2.2 % of control"},
      {"measurement": "sAβ level (% of control)", "setting": "[4]; Neuro2A cells transfected with human APP695, adenine 30 microM", "value": "48.1 ± 1.7 % of control"},
      {"measurement": "sAβ level (% of control)", "setting": "[4]; Neuro2A cells transfected with human APP695, adenine 40 microM", "value": "31.7 ± 5.1 % of control"},
      {"measurement": "sAβ level (% of control)", "setting": "[4]; Neuro2A cells transfected with human APP695, adenine 50 microM", "value": "29.4 ± 3.6 % of control"},
      {"measurement": "LC3-II/LC3-I ratio (relative to control)", "setting": "[5]; adenine 10 microM", "value": "1.2 ± 0.1 relative to control"},
      {"measurement": "LC3-II/LC3-I ratio (relative to control)", "setting": "[5]; adenine 20 microM", "value": "1.8 ± 0.3 relative to control"},
      {"measurement": "LC3-II/LC3-I ratio (relative to control)", "setting": "[5]; adenine 30 microM", "value": "2.8 ± 0.2 relative to control"},
      {"measurement": "LC3-II/LC3-I ratio (relative to control)", "setting": "[5]; adenine 40 microM", "value": "2.9 ± 0.2 relative to control"},
      {"measurement": "LC3-II/LC3-I ratio (relative to control)", "setting": "[5]; adenine 50 microM", "value": "3.2 ± 0.3 relative to control"},
      {"measurement": "Cellnumber (% to control)", "setting": "[6]; adenine 10 microM", "value": "91±2.7 % to control"},
      {"measurement": "Cellnumber (% to control)", "setting": "[6]; adenine 50 microM", "value": "73±8.1 % to control"},
      {"measurement": "Cellnumber (% to control)", "setting": "[6]; adenine 100 microM", "value": "64±5.3 % to control"},
      {"measurement": "Cellnumber (% to control)", "setting": "[6]; adenine 200 microM", "value": "48±2.8 % to control"},
      {"measurement": "Cellnumber (% to control)", "setting": "[6]; adenine 500 microM", "value": "33±6.4 % to control"},
      {"measurement": "Cellnumber (% to control)", "setting": "[6]; adenine 1000 microM", "value": "27±11.3 % to control"},
      {"measurement": "AMPK activation (fold to control)", "setting": "[7]; adenine 1 microM", "value": "1.1 fold to control"},
      {"measurement": "AMPK activation (fold to control)", "setting": "[7]; adenine 10 microM", "value": "1.4 fold to control"},
      {"measurement": "AMPK activation (fold to control)", "setting": "[7]; adenine 100 microM", "value": "2.1 fold to control"},
      {"measurement": "AMPK activation (fold to control)", "setting": "[7]; adenine 200 microM", "value": "2.5 fold to control"},
      {"measurement": "AMPK activation (fold to control)", "setting": "[7]; adenine 600 microM", "value": "2.8 fold to control"},
      {"measurement": "IC50", "setting": "[8]", "value": 532, "unit": "µM"}
    ]}
  ]
}
